Experimental data reported in ChEMBL document CHEMBL4507315 (2021).

How the values were obtained:
[1] = target: Activin receptor type-2A (Homo sapiens) (UniProt P27037); settings: Compound concentration 100.0 nM
[2] = system: Serine/threonine-protein kinase B-raf (Homo sapiens), P15056 [V600E]; settings: Compound concentration 100.0 nM
[3] = target: Calcium/calmodulin-dependent protein kinase type II subunit delta (Homo sapiens) (UniProt Q13557); settings: Compound concentration 100.0 nM
[4] = target: Calcium/calmodulin-dependent protein kinase type IV (Homo sapiens) (UniProt Q16566); settings: Compound concentration 100.0 nM
Sequence of Calcium/calmodulin-dependent protein kinase type IV (Homo sapiens) (Q16566 whole entry): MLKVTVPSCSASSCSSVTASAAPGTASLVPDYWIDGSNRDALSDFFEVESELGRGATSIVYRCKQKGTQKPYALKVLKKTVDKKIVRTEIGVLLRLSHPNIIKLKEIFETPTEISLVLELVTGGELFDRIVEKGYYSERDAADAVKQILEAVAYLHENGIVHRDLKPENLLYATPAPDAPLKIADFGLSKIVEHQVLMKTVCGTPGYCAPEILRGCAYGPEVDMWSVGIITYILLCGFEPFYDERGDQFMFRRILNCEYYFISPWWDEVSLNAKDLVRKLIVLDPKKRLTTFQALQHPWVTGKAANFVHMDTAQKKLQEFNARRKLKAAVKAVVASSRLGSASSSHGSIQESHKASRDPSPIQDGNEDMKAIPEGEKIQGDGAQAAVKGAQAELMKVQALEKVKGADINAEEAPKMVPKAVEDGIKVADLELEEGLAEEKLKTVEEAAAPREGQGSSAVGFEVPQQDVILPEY

[5] = target: Cyclin-dependent kinase 11B (Homo sapiens) (UniProt P21127); settings: Compound concentration 100.0 nM
Sequence of Cyclin-dependent kinase 11B (Homo sapiens) (P21127 whole entry): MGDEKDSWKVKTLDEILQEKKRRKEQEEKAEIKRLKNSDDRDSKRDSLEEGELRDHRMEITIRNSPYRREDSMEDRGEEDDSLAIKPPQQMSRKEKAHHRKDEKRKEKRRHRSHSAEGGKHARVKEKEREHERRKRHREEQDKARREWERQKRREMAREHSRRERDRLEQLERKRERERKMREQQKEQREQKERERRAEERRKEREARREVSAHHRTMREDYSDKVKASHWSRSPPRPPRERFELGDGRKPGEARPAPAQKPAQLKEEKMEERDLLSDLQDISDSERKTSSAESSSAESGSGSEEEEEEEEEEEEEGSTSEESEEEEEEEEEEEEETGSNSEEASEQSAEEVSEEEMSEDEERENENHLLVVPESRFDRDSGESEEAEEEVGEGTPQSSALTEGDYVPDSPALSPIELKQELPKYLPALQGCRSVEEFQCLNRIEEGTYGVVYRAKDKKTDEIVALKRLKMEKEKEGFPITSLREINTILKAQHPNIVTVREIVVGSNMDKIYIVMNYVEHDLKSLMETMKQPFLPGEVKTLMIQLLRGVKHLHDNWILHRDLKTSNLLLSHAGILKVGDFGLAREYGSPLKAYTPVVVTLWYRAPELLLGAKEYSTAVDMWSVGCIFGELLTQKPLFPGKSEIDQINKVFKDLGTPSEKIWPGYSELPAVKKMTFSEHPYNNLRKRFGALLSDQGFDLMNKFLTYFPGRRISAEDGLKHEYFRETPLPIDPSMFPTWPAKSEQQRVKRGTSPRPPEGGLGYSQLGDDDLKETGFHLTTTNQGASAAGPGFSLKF

[6] = target: Cyclin-dependent kinase 3 (Homo sapiens) (UniProt Q00526); settings: Compound concentration 100.0 nM
[7] = target: Casein kinase I isoform gamma-1 (Homo sapiens) (UniProt Q9HCP0); settings: Compound concentration 100.0 nM
[8] = target: Epithelial discoidin domain-containing receptor 1 (Homo sapiens) (UniProt Q08345); settings: Compound concentration 100.0 nM
[9] = system: Epidermal growth factor receptor (Homo sapiens), P00533 [UNDEFINED MUTATION]; settings: Compound concentration 100.0 nM
[10] = system: Epidermal growth factor receptor (Homo sapiens), P00533 [L858R,T790M]; settings: Compound concentration 100.0 nM
[11] = target: Eukaryotic translation initiation factor 2-alpha kinase 1 (Homo sapiens) (UniProt Q9BQI3); settings: Compound concentration 100.0 nM
[12] = target: Ephrin type-A receptor 1 (Homo sapiens) (UniProt P21709); settings: Compound concentration 100.0 nM
[13] = target: Mitogen-activated protein kinase 7 (Homo sapiens) (UniProt Q13164); settings: Compound concentration 100.0 nM
Sequence of Mitogen-activated protein kinase 7 (Homo sapiens) (Q13164 2-816 limits assumed): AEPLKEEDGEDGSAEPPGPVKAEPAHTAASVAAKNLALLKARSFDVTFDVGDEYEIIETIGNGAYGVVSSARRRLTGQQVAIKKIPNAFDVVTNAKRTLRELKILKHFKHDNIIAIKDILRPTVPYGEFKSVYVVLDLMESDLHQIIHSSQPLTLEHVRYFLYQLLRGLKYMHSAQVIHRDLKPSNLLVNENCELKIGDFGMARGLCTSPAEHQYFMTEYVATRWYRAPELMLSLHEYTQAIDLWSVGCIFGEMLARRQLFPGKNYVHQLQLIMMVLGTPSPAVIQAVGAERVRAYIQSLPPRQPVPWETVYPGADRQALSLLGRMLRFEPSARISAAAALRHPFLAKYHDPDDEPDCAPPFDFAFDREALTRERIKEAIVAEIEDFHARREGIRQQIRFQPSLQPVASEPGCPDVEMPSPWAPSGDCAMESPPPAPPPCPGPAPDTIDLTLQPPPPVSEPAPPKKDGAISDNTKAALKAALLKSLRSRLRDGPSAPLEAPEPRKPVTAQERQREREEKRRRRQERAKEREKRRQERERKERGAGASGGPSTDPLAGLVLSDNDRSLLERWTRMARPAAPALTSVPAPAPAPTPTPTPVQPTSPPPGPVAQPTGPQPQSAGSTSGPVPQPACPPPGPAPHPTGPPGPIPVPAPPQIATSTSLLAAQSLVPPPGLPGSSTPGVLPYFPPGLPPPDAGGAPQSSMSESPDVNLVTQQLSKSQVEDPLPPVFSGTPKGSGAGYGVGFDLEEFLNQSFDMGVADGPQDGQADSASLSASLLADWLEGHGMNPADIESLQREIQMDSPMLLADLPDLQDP

[14] = system: Receptor-type tyrosine-protein kinase FLT3 (Homo sapiens), P36888 [UNDEFINED MUTATION]; settings: Compound concentration 100.0 nM
[15] = target: G protein-coupled receptor kinase 4 (Homo sapiens) (UniProt P32298); settings: Compound concentration 100.0 nM
[16] = target: Serine/threonine-protein kinase haspin (Homo sapiens) (UniProt Q8TF76); settings: Compound concentration 100.0 nM
[17] = target: Inhibitor of nuclear factor kappa-B kinase subunit alpha (Homo sapiens) (UniProt O15111); settings: Compound concentration 100.0 nM
[18] = target: Inhibitor of nuclear factor kappa-B kinase subunit beta (Homo sapiens) (UniProt O14920); settings: Compound concentration 100.0 nM
[19] = target: Serine/threonine-protein kinase LATS2 (Homo sapiens) (UniProt Q9NRM7); settings: Compound concentration 100.0 nM
Sequence of Serine/threonine-protein kinase LATS2 (Homo sapiens) (Q9NRM7 whole entry): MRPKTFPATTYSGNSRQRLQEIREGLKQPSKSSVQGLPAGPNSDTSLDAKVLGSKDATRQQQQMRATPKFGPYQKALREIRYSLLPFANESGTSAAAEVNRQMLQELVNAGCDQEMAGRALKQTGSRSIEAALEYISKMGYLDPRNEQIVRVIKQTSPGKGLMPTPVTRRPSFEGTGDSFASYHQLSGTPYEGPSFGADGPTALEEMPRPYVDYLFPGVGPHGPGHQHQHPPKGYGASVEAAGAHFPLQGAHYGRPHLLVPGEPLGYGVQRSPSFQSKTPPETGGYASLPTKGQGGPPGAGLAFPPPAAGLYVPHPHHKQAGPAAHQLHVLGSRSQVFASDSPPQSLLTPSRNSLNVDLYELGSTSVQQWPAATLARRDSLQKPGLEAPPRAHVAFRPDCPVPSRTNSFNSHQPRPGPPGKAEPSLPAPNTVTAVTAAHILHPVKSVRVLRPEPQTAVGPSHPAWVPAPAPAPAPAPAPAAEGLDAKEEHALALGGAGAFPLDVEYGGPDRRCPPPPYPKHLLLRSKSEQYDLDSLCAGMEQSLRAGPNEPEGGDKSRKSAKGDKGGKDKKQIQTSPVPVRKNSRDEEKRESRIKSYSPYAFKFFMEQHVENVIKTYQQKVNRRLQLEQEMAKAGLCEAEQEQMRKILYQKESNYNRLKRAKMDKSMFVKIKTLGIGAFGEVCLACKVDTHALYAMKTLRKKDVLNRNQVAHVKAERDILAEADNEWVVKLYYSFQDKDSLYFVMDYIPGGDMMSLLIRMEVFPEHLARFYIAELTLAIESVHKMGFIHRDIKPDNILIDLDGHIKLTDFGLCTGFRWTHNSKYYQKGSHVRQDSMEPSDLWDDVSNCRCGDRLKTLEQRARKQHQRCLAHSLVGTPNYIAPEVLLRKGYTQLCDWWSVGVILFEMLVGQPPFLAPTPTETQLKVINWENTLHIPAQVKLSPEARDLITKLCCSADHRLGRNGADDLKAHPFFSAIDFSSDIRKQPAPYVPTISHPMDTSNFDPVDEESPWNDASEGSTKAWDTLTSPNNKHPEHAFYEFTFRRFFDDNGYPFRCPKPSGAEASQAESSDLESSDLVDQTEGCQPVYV

[20] = target: Tyrosine-protein kinase Lck (Homo sapiens) (UniProt P06239); settings: Compound concentration 100.0 nM
[21] = target: Leukocyte tyrosine kinase receptor (Homo sapiens) (UniProt P29376); settings: Compound concentration 100.0 nM
[22] = target: Mitogen-activated protein kinase kinase kinase 13 (Homo sapiens) (UniProt O43283); settings: Compound concentration 100.0 nM
Sequence of Mitogen-activated protein kinase kinase kinase 13 (Homo sapiens) (O43283 whole entry): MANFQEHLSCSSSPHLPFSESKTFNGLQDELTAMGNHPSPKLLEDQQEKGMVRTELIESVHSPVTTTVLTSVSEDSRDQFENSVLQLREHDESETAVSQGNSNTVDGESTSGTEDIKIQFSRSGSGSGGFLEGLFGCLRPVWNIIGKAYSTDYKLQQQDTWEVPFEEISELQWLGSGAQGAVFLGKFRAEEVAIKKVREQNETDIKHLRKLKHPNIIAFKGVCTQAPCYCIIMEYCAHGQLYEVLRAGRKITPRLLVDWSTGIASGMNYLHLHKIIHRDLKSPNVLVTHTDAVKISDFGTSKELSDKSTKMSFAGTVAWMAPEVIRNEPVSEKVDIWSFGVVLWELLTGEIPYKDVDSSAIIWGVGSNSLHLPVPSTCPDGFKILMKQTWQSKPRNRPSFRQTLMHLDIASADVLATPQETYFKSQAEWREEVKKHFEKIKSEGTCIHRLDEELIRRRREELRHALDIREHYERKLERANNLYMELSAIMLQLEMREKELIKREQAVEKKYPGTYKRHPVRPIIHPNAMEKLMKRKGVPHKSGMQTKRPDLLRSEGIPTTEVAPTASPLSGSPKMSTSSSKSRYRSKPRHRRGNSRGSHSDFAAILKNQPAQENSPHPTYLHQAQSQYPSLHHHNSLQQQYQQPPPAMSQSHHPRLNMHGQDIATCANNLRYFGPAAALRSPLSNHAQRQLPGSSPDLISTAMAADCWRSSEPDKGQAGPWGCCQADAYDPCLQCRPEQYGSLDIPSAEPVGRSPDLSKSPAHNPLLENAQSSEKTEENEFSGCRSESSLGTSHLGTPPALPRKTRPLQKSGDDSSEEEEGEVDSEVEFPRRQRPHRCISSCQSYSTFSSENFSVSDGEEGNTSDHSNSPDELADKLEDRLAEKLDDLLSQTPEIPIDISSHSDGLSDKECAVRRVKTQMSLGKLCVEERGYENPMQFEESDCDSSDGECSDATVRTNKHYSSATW

[23] = target: MAP kinase-activated protein kinase 2 (Homo sapiens) (UniProt P49137); settings: Compound concentration 100.0 nM
Sequence of MAP kinase-activated protein kinase 2 (Homo sapiens) (P49137 whole entry, looked up): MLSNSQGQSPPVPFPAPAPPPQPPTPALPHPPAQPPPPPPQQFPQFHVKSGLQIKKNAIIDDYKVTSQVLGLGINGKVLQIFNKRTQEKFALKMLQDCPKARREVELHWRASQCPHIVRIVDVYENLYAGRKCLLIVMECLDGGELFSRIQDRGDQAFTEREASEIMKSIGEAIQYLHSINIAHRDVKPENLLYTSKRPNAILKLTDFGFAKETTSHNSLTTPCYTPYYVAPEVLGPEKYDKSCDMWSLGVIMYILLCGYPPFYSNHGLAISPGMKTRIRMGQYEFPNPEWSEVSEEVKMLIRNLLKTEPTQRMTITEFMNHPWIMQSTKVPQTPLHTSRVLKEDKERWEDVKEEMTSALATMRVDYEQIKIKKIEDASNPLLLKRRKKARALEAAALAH

[24] = target: MAP kinase-activated protein kinase 5 (Homo sapiens) (UniProt Q8IW41); settings: Compound concentration 100.0 nM
[25] = target: Serine/threonine-protein kinase MARK2 (Homo sapiens) (UniProt Q7KZI7); settings: Compound concentration 100.0 nM
[26] = target: Maternal embryonic leucine zipper kinase (Homo sapiens) (UniProt Q14680); settings: Compound concentration 100.0 nM
[27] = target: Serine/threonine-protein kinase Nek3 (Homo sapiens) (UniProt P51956); settings: Compound concentration 100.0 nM
Sequence of Serine/threonine-protein kinase Nek3 (Homo sapiens) (P51956 whole entry): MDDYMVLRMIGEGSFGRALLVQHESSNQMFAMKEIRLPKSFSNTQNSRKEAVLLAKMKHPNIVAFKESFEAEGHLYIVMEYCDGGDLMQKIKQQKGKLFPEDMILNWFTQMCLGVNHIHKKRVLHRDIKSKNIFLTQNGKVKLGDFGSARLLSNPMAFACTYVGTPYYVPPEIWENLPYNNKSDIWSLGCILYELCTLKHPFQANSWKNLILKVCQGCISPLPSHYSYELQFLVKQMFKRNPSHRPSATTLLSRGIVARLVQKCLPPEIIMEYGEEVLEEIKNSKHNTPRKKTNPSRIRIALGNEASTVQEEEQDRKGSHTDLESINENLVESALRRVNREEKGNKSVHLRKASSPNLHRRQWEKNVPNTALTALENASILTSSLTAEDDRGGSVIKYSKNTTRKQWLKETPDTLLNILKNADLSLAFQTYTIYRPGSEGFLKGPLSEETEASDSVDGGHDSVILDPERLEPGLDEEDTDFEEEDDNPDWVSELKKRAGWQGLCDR

[28] = target: Serine/threonine-protein kinase Nek4 (Homo sapiens) (UniProt P51957); settings: Compound concentration 100.0 nM
[29] = target: Phosphatidylinositol 4-phosphate 3-kinase C2 domain-containing subunit beta (Homo sapiens) (UniProt O00750); settings: Compound concentration 100.0 nM
[30] = target: Phosphatidylinositol 3-kinase C2 domain-containing subunit gamma (Homo sapiens) (UniProt O75747); settings: Compound concentration 100.0 nM
[31] = target: Serine/threonine-protein kinase pim-2 (Homo sapiens) (UniProt Q9P1W9); settings: Compound concentration 100.0 nM
[32] = target: Serine/threonine-protein kinase N2 (Homo sapiens) (UniProt Q16513); settings: Compound concentration 100.0 nM
[33] = system: Proto-oncogene tyrosine-protein kinase receptor Ret (Homo sapiens), P07949 [V804L]; settings: Compound concentration 100.0 nM
[34] = target: Serine/threonine-protein kinase RIO1 (Homo sapiens) (UniProt Q9BRS2); settings: Compound concentration 100.0 nM
[35] = target: Serine/threonine-protein kinase RIO3 (Homo sapiens) (UniProt O14730); settings: Compound concentration 100.0 nM
[36] = target: Receptor-interacting serine/threonine-protein kinase 2 (Homo sapiens) (UniProt O43353); settings: Compound concentration 100.0 nM
[37] = target: Ribosomal protein S6 kinase alpha-3 (Homo sapiens) (UniProt P51812); settings: Compound concentration 100.0 nM
[38] = target: SNF-related serine/threonine-protein kinase (Homo sapiens) (UniProt Q9NRH2); settings: Compound concentration 100.0 nM
[39] = target: Testis-specific serine/threonine-protein kinase 1 (Homo sapiens) (UniProt Q9BXA7); settings: Compound concentration 100.0 nM
[40] = target: Vascular endothelial growth factor receptor 2 (Homo sapiens) (UniProt P35968); settings: Compound concentration 100.0 nM
[41] = target: Wee1-like protein kinase 2 (Homo sapiens) (UniProt P0C1S8); settings: Compound concentration 100.0 nM
[42] = target: D(2) dopamine receptor (Homo sapiens) (UniProt P14416); settings: Compound concentration 10.0 uM
[43] = target: Alpha-1A adrenergic receptor (Homo sapiens) (UniProt P35348); settings: Compound concentration 10.0 uM
[44] = target: Alpha-2A adrenergic receptor (Homo sapiens) (UniProt P08913); settings: Compound concentration 10.0 uM

Compound: Nc1c(C(=O)NCc2ccc(C(=O)NCCCC3CCCCC3)cc2)cnn1-c1ccccc1 [SR-318]
- residual activity [1]: 100%
- residual activity [2]: 100%
- residual activity [3]: 100%
- residual activity [4]: 98%
- residual activity [5]: 100%
- residual activity [6]: 100%
- residual activity [7]: 100%
- residual activity [8]: 43%
- residual activity [9]: 84%
- residual activity [10]: 96%
- residual activity [11]: 100%
- residual activity [12]: 100%
- residual activity [13]: 78%
- residual activity [14]: 73%
- residual activity [15]: 100%
- residual activity [16]: 100%
- residual activity [17]: 100%
- residual activity [18]: 100%
- residual activity [19]: 100%
- residual activity [20]: 82%
- residual activity [21]: 100%
- residual activity [22]: 100%
- residual activity [23]: 100%
- residual activity [24]: 93%
- residual activity [25]: 65%
- residual activity [26]: 92%
- residual activity [27]: 100%
- residual activity [28]: 100%
- residual activity [29]: 99%
- residual activity [30]: 100%
- residual activity [31]: 100%
- residual activity [32]: 78%
- residual activity [33]: 100%
- residual activity [34]: 95%
- residual activity [35]: 100%
- residual activity [36]: 96%
- residual activity [37]: 100%
- residual activity [38]: 91%
- residual activity [39]: 81%
- residual activity [40]: 100%
- residual activity [41]: 100%
- inhibition [42]: 15%
- inhibition [43]: 36.9%
- inhibition [44]: 4.08%

Compound: O=C(NCCCC1CCCCC1)c1ccc(CNC(=O)c2cnn(-c3ccccc3)c2C(F)(F)F)cc1 [SR-321]
- residual activity [1]: 83%
- residual activity [2]: 100%
- residual activity [3]: 100%
- residual activity [4]: 100%
- residual activity [5]: 100%
- residual activity [6]: 100%
- residual activity [7]: 100%
- residual activity [8]: 100%
- residual activity [9]: 100%
- residual activity [10]: 95%
- residual activity [11]: 95%
- residual activity [12]: 100%
- residual activity [13]: 100%
- residual activity [14]: 100%
- residual activity [15]: 100%
- residual activity [16]: 100%
- residual activity [17]: 100%
- residual activity [18]: 100%
- residual activity [19]: 97%
- residual activity [20]: 100%
- residual activity [21]: 100%
- residual activity [22]: 100%
- residual activity [23]: 100%
- residual activity [24]: 100%
- residual activity [25]: 100%
- residual activity [26]: 80%
- residual activity [27]: 100%
- residual activity [28]: 100%
- residual activity [29]: 86%
- residual activity [30]: 100%
- residual activity [31]: 100%
- residual activity [32]: 100%
- residual activity [33]: 100%
- residual activity [34]: 100%
- residual activity [35]: 100%
- residual activity [36]: 97%
- residual activity [37]: 100%
- residual activity [38]: 100%
- residual activity [39]: 94%
- residual activity [40]: 97%
- residual activity [41]: 100%
- inhibition [42]: 15.8%
- inhibition [43]: 17.9%
- inhibition [44]: -2.46%
